Like-named read-outs stand apart in the source and are kept apart here. Values belong to the compound of their own block, whether it stands above or below them.
How the values were obtained:
[1] = Cu complex formation in HS buffer (appearance, precipitation); assay type: physicochemical; settings: 0.1 mM chelator and Cu in HS buffer pH 6.5
Protocol: Cu:4-DEAP-ATSC and Cu:ATSM complexes were formed as follows. In 1 mL HS were added 5 μL of 20 mM CuSO4 and 5 μl of 20 mM 4-DEAP-ATSC (in DMSO) or 5 μL of 20 mM ATSM (in DMSO). […] The chelator and Cu concentration was 0.1 mM.

[2] = Storage stability of 4-DEAP-ATSC formulations (degradation); assay type: physicochemical
Protocol: Various 4-DEAP-ATSC formulations (see Table 10 below) were stored under different conditions. At designated time points, samples were collected where their storage stability were evaluated by functional readouts.
4-DEAP-ATSC was formulated in citrate buffer in a range of pH (pH 4-7). […] At a pH of between 6 and 7, the rates of degradation were very similar, with less than 15% degradation observed over a 4-month period when stored at −20° C. or 4° C.
4-DEAP-ATSC formulated in citrate buffer was stored at 4 different temperatures (−20° C., 4° C., 30° C., and 37° C.). […] (>60%) over a 1-month period. On the other hand, 4-DEAP-ATSC formulations stored at −20° C. and 4° C. can be stably preserved with less than 15% of degradation detected over a period of 4 months.
Various 4-DEAP-ATSC formulations were lyophilized and stored under different conditions to study the effect of lyophilization on their storage stability. […] In addition, mannitol was added to the formulation to serve as a bulking agent for lyophilization.
A set of 4-DEAP-ATSC formulations was filled with argon as an alternative means to improve storage stability of the liquid formulations. […] Significant degradation was still detected in formulations stored at elevated temperatures (30° C. and 37° C.). Additionally, storage stability of inert gas-filled lyophilized formulations was similar to air-filled lyophilized formulations (FIG. 19F).

[3] = ^64Cu chelation efficiency of 4-DEAP-ATSC by instant thin layer chromatography (ITLC); assay type: physicochemical
Source text: […] An instant thin layer chromatography (ITLC) assay was used for quantifying the fractions of uncomplexed ^64Cu and ^64Cu(II)-4-DEAP-ATSC complex in the chelation mixture. The uncomplexed ^64Cu can be detected at the solvent front, while the ^64Cu(II)-4-DEAP-ATSC complex remained at the origin where the sample is spotted.

[4] = Efficiency of ^64Cu:4-DEAP-ATSC loading into liposomes, size exclusion chromatography; assay type: physicochemical
Protocol: The efficiency of liposome loading for Step 2 (see FIG. 3) was determined. […] Encapsulated (liposomal) radioactivity was separated from total radioactivity using size exclusion chromatography. From this it was determined that >90% of the ^64Cu was loaded into the liposome at 4-DEAP-ATSC:lipid ratios <2 mol % as shown in Table 2.

[5] = over several weeks, cited from earlier work

Compound: CNC(=S)NN=C(C)C(C)=NNC(=S)NC [ATSM, diacetyl 4-methylthiosemicarbazone, reference compound]
appearance of Cu complex sample [1]: became turbid and developed a brown precipitate

degradation ([2]; citrate buffer pH between 6 and 7, 4-month period, stored at −20° C. or 4° C.): less than 15% | degradation ([2]; citrate buffer, stored at 30° C. and 37° C., 1-month period): > 60% | degradation ([2]; citrate buffer, stored at −20° C. and 4° C., period of 4 months): less than 15% | effect of inert gas atmosphere on storage stability ([2]; liquid formulations filled with argon): did not improve storage stability | effect of lyophilization on storage stability ([2]; lyophilized formulations): effective method to inhibit degradation | effect of mannitol on storage stability ([2]; mannitol as bulking agent for lyophilization): no effect on the storage stability | Chelation Efficiency ([3]; Specific Radioactivity 0.01 mCi/nmol): 11-46% | Chelation Efficiency ([3]; Specific Radioactivity 0.04 mCi/nmol): 98% | Chelation Efficiency ([3]; Specific Radioactivity 0.07 mCi/nmol): 68-97% | Chelation Efficiency ([3]; Specific Radioactivity 0.08 mCi/nmol): 99% | Chelation Efficiency ([3]; Specific Radioactivity 0.09 mCi/nmol): 99% | Chelation Efficiency ([3]; Specific Radioactivity 0.1 mCi/nmol): 99-100% | Chelation Efficiency ([3]; Specific Radioactivity 0.15 mCi/nmol): 98-99% | Chelation Efficiency ([3]; Specific Radioactivity 0.17 mCi/nmol): 96% | Chelation Efficiency ([3]; Specific Radioactivity 0.18 mCi/nmol): 94% | Chelation Efficiency ([3]; Specific Radioactivity 0.2 mCi/nmol): 96-99% | Chelation Efficiency ([3]; Specific Radioactivity 0.3 mCi/nmol): 98% | Chelation Efficiency ([3]; Specific Radioactivity 0.65 mCi/nmol): 99% | Chelation Efficiency ([3]; Specific Radioactivity 13.1 mCi/nmol): 99% | efficiency of chelation ([3]; specific radioactivities ranging from 0.07-0.3 mCi/nmol): 94-99% | ^64Cu Loading Efficiency ([4]; 4-DEAP-ATSC:Lipid Ratio 0.01% (mol %)): 96-98% | ^64Cu Loading Efficiency ([4]; 4-DEAP-ATSC:Lipid Ratio 0.04% (mol %)): 96-98% | ^64Cu Loading Efficiency ([4]; 4-DEAP-ATSC:Lipid Ratio 0.10% (mol %)): 95-97% | ^64Cu Loading Efficiency ([4]; 4-DEAP-ATSC:Lipid Ratio 0.15% (mol %)): 92-97% | ^64Cu Loading Efficiency ([4]; 4-DEAP-ATSC:Lipid Ratio 0.25% (mol %)): 92-97% | ^64Cu Loading Efficiency ([4]; 4-DEAP-ATSC:Lipid Ratio 0.40% (mol %)): 94-98% | ^64Cu Loading Efficiency ([4]; 4-DEAP-ATSC:Lipid Ratio 0.50% (mol %)): 92-96% | ^64Cu Loading Efficiency ([4]; 4-DEAP-ATSC:Lipid Ratio 0.67% (mol %)): 96% | ^64Cu Loading Efficiency ([4]; 4-DEAP-ATSC:Lipid Ratio 0.75% (mol %)): 92% | ^64Cu Loading Efficiency ([4]; 4-DEAP-ATSC:Lipid Ratio 1% (mol %)): 93-98% | ^64Cu Loading Efficiency ([4]; 4-DEAP-ATSC:Lipid Ratio 2% (mol %)): 91-97% | ^64Cu Loading Efficiency ([4]; 4-DEAP-ATSC:Lipid Ratio 4.20% (mol %)): 86% | ^64Cu Loading Efficiency ([4]; 4-DEAP-ATSC:Lipid Ratio 5.00% (mol %)): 92-93% | ^64Cu Loading Efficiency ([4]; 4-DEAP-ATSC:Lipid Ratio 10% (mol %)): 82-92% | ^64Cu Loading Efficiency ([4]; 4-DEAP-ATSC:Lipid Ratio 25% (mol %)): 90% | ^64Cu Loading Efficiency ([4]; 4-DEAP-ATSC:Lipid Ratio 50% (mol %)): 71% | ^64Cu loaded into the liposome ([4]; 4-DEAP-ATSC:lipid ratios <2 mol %): > 90%
Compound: CCN(CC)CCCNC(=S)NN=C(C)C(C)=NNC(=S)NCCCN(CC)CC [Sample 4-DEAP-ATSC, diacetyl 4,4′bis (3-(N,N-diethylamino)propyl)thiosemicarbazone]
appearance of Cu complex sample [1]: remained clear, without any signs of precipitation

Compound: [Cu] [copper]
Toxic dose levels ([5]; 65 kg adult): ~154 µg/kg | Toxic dose levels [5]: > 10 mg/person/day

Reference: US9968694B2, “Compositions and methods for non-invasive imaging” (MERRIMACK PHARMACEUTICALS, INC., priority 2012, dated 2018)
